Literature values as cited in patent US20220370398A1, “METHOD TO DESTABALIZE CYSTEINE EXPOSED INFECTIOUS INFORMATION VECTORS” (priority 2021, published 2022).

Assays:
[1] = in 40% aqueous ethanol solution
bacterial infection = settings: in vitro, as a vapor

C=CCS[S+]([O-])CC=C (centres unmarked) [2PSP, 2-Propene-1-sulfinothioic acid S-2-propenyl ester]
solubility [1]: ~20%
vapor antimicrobial effect (bacterial infection): inhibits bacterial infection
